{"source": "patent US7572606B1", "about": "(Nereus Pharmaceuticals, Inc., priority 2005, dated 2009)", "key": {"PC-3": {"test_system": "PC-3", "assay": "Cell growth inhibition, resazurin, 48 h"}, "ACHN": {"test_system": "ACHN", "assay": "NCI 60 cell line screen, sulforhodamine B, 48 h", "assay_type": "cell-based, human", "conditions": "Renal Cancer", "procedure": "(§1) A detailed description of the screening procedure can be found at hypertext transfer protocol (http://) “dtp.nci.nih.gov/branches/btb/ivclsp.html.”\n(§2) In brief, each of the 60 human tumor cell lines were grown in RPMI 1640 medium, supplemented with 5% fetal bovine serum and 2 mM L-glutamine. Cells were plated at their appropriate density in 96-well microtiter plates and incubated at 37° C., 5% CO2, 95% air and 100% relative humidity. […] Cells were incubated for an additional 48 hours and a sulforhodamine B protein assay was used to estimate cell viability or growth."}, "OVCAR-3": {"test_system": "OVCAR-3", "assay": "NCI 60 cell line screen, sulforhodamine B, 48 h", "assay_type": "cell-based, human", "conditions": "OVCAR-3, Ovarian Cancer", "procedure": "as §1, §2"}, "SNB-19": {"test_system": "SNB-19", "assay": "NCI 60 cell line screen, sulforhodamine B, 48 h", "assay_type": "cell-based, human", "procedure": "as §1, §2"}, "HCT-15": {"test_system": "HCT-15", "assay": "NCI 60 cell line screen, sulforhodamine B, 48 h", "assay_type": "cell-based, human", "procedure": "as §1, §2"}, "HDP-62": {"test_system": "HDP-62", "assay": "NCI 60 cell line screen, sulforhodamine B, 48 h", "assay_type": "cell-based, human", "conditions": "HDP-62, Non-Small Cell Lung Cancer", "procedure": "as §1, §2"}, "SF-539": {"test_system": "SF-539", "assay": "NCI 60 cell line screen, sulforhodamine B, 48 h", "assay_type": "cell-based, human", "conditions": "SF-539, CNS Cancer", "procedure": "as §1, §2"}, "HL-60": {"test_system": "HL-60", "assay": "Cell growth inhibition, resazurin, 48 h", "conditions": "for EC50: HL-60, 48 h drug exposure", "procedure": "(§3) The DNA binding agent Mitoxantrone was included as a control, as HL-60/MX2 cells are reported to be resistant to this chemotherapeutic agent (Harker W. G. et al. 1989).\n(§4) Concentrations ranging from 6.32 μM to 2 nM were tested for II-2 and II-4."}, "HL-60/MX2": {"test_system": "HL-60/MX2", "assay": "Cell growth inhibition, resazurin, 48 h", "conditions": "for EC50: HL-60/MX2, 48 h drug exposure", "procedure": "as §3, §4"}, "MIA PaCa-2": {"test_system": "MIA PaCa-2", "assay": "Cell growth inhibition, resazurin, 48 h", "assay_type": "cell-based", "conditions": "Homo sapiens; MIA PaCa-2, 48 h drug exposure"}, "MES-SA": {"test_system": "MES-SA", "assay": "Cell growth inhibition, resazurin, 48 h", "conditions": "for EC50: Homo sapiens, 48 h", "procedure": "as §4"}, "MES-SA/Dx5": {"test_system": "MES-SA/Dx5", "assay": "Cell growth inhibition, resazurin, 48 h", "conditions": "for EC50: Homo sapiens, MES-SA/Dx5, 48 h", "procedure": "as §4"}, "HT-29": {"test_system": "HT-29", "assay": "Cell growth inhibition, resazurin, 48 h", "assay_type": "cell-based, human", "conditions": "HT-29, 48 h drug exposure", "procedure": "RPMI 8226 (CCL-155), HT-29 (HTB-38), and B16-F10 (CRL-6475) cells were purchased from ATCC. RPMI 8226 cells were maintained in RPMI 1640 media supplemented with 10% (v/v) FBS, 2 mM L-glutamine, 1 mM sodium pyruvate and Penicillin/Streptomycin at 100 IU/ml and 100 μg/ml, respectively. HT-29 cells were maintained in McCoys 5A supplemented with 10% (v/v) FBS, 2 mM L-glutamine, 1 mM sodium pyruvate, 1% (v/v) non-essential amino acids, 10 mM HEPES and Penicillin/Streptomycin at 100 IU/ml and 100 μg/ml, respectively. B16-F10 cells were maintained in DMEM supplemented with 10% (v/v) FBS, 2 mM L-glutamine, 10 mM HEPES and Penicillin/Streptomycin at 100 IU/ml and 100 μg/ml, respectively.\nRPMI 8226 cells were seeded at 2×10^4 cells/well in 90 μl RPMI media containing 10% (v/v) FBS or 1% (v/v) FBS into 96 well black-walled, clear-bottom tissue culture plates. […] Formulae II-16, II-17 and Formula II-18 were serially diluted in media containing 1% or 10% FBS and added in triplicate to the test wells. […] The final concentration of Formula II-18 ranged from 2 μM to 630 pM."}, "NCI-H292": {"test_system": "NCI-H292", "assay": "Cell growth inhibition, resazurin, 48 h", "assay_type": "cell-based, human", "conditions": "NCI-H292, 48 h drug exposure"}, "U266": {"test_system": "U266", "assay": "Cell growth inhibition, resazurin, 48 h", "assay_type": "cell-based, human", "conditions": "U266, 48 h drug exposure"}, "[1]": {"target": "T1, 20S proteasome chymotrypsin-like activity in PC-3 cells (Homo sapiens, UniProt P28074)", "T1 construct": "PC-3 (ATCC, CRL-1435), the human prostate cancer cell line; host or cells: PC-3", "T1 sequence (P28074 60-263)": "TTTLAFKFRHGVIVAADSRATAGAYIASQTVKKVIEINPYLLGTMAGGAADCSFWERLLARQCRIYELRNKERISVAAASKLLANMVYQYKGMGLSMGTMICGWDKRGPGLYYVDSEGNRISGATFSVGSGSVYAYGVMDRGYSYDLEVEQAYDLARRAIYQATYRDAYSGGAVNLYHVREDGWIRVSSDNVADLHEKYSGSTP", "assay": "Chymotrypsin-like activity of 20S proteasomes in treated cells", "assay_type": "cell-based", "conditions": "PC-3, read-out: % inhibition of the chymotrypsin-like activity of 20S proteasomes in PC-3 cell lysates, 1 hr; for inhibition at 0.01 µM: 10 nM; for inhibition at 0.1 µM: 100 nM; for inhibition at 1 µM: 1,000 nM; for inhibition at 10 µM: 10,000 nM", "procedure": "PC-3 (ATCC, CRL-1435), the human prostate cancer cell line, was cultured in F12K medium supplemented with 2 mM L-glutamine, 100 units/ml penicillin, 100 μg/ml streptomycin and 10% heat inactivated fetal bovine serum at 37° C., 5% CO2 and 95% humidified air. […] DMSO was used as the vehicle control at a final concentration of 0.1%. Following 1 hr incubation of PC-3 cells with the compounds, the cells were washed 3× with ice-cold 1×Dulbecco's Phosphate-Buffered Saline (DPBS, Mediatech, Herndon, Va.). […] Cell debris was pelleted by centrifugation at 14,000 rpm for 10 min, 4° C. and supernatants (=cell lysates) were transferred to a new tube. Protein concentration was determined by the BCA protein assay kit (Pierce Biotechnology, Rockford, Ill.). […] The total amount of protein used for each assay was 20 μg. The final concentration of Suc-LLVY-AMC and DMSO was 20 μM and 0.2%, respectively. Results are presented as the percent inhibition of the 20S proteasome chymotrypsin-like activity relative to the DMSO control."}}, "note": "Where “and” joins values, the source holds several entries; their conditions need not be identical. Identical values can stand only once. Like-named read-outs stand apart in the source and are kept apart here."}
{"smiles": "C[C@@]12OC(=O)[C@]1([C@@H](O)[C@@H]1C=CCCC1)NC(=O)[C@@H]2CCCl", "note": "[Formula II-16, Salinosporamide A]", "values": [{"measurement": "% cytotoxicity", "setting": "PC-3; PC-3", "result": "88% and 89%"}, {"measurement": "EC50", "setting": "PC-3; PC-3, 48 h drug exposure", "result": "0.064 ± 0.026", "unit": "µM"}, {"measurement": "Log10 G150", "setting": "ACHN", "result": "<-8.00", "unit": "Molar"}, {"measurement": "Log10 TGI", "setting": "ACHN", "result": -5.27, "unit": "Molar"}, {"measurement": "Log10 G150", "setting": "OVCAR-3", "result": "<-8.00", "unit": "Molar"}, {"measurement": "Log10 TGI", "setting": "OVCAR-3", "result": -4.83, "unit": "Molar"}, {"measurement": "CC50", "setting": "SNB-19; Homo sapiens, SNB-19, read-out: Log10 LC50 (converted)", "result": "> 100", "unit": "µM"}, {"measurement": "Log10 G150", "setting": "SNB-19; SNB-19, CNS Cancer", "result": "<-8.00", "unit": "Molar"}, {"measurement": "Log10 TGI", "setting": "SNB-19; SNB-19, CNS Cancer", "result": ">-4.00", "unit": "Molar"}, {"measurement": "Log10 G150", "setting": "HCT-15; HCT-15, Colon Cancer", "result": "<-8.00", "unit": "Molar"}, {"measurement": "Log10 TGI", "setting": "HCT-15; HCT-15, Colon Cancer", "result": -6.06, "unit": "Molar"}, {"measurement": "CC50", "setting": "HCT-15; Homo sapiens, HCT-15, read-out: Log10 LC50 (converted)", "result": 56.2, "unit": "µM"}, {"measurement": "Log10 G150", "setting": "HDP-62", "result": "<-8.00", "unit": "Molar"}, {"measurement": "Log10 TGI", "setting": "HDP-62", "result": -4.89, "unit": "Molar"}, {"measurement": "Log10 G150", "setting": "SF-539", "result": "<-8.00", "unit": "Molar"}, {"measurement": "Log10 TGI", "setting": "SF-539", "result": "<-8.00", "unit": "Molar"}, {"measurement": "% cytotoxicity", "setting": "HL-60; HL-60", "result": "88% and 91%"}, {"measurement": "EC50", "setting": "HL-60", "result": 0.03, "unit": "µM"}, {"measurement": "EC50", "setting": "HL-60; Homo sapiens, HL-60, 48 h", "result": 0.027, "unit": "µM"}, {"measurement": "% cytotoxicity", "setting": "HL-60/MX2; HL-60/MX2", "result": "84% and 89%"}, {"measurement": "EC50", "setting": "HL-60/MX2", "result": 0.025, "unit": "µM"}, {"measurement": "EC50", "setting": "HL-60/MX2; Homo sapiens, HL60/MX2, 48 h", "result": 0.028, "unit": "µM"}, {"measurement": "EC50", "setting": "MIA PaCa-2", "result": 0.046, "unit": "µM"}, {"measurement": "% cytotoxicity", "setting": "MES-SA", "result": "94 ± 1", "unit": "%"}, {"measurement": "EC50", "setting": "MES-SA", "result": "0.02 ± 0.005", "unit": "µM"}, {"measurement": "EC50", "setting": "MES-SA/Dx5", "result": "0.023 ± 0.001", "unit": "µM"}, {"measurement": "% cytotoxicity", "setting": "MES-SA/Dx5; MES-SA/Dx5", "result": "92 ± 2", "unit": "%"}, {"measurement": "EC50", "setting": "HT-29", "result": "0.04 ± 0.026", "unit": "µM"}, {"measurement": "EC50", "setting": "HT-29; Homo sapiens, HT-29, 48 h", "result": 0.047, "unit": "µM"}, {"measurement": "EC50", "setting": "NCI-H292; Homo sapiens, NCI-H292, 48 h", "result": 0.097, "unit": "µM"}, {"measurement": "EC50", "setting": "NCI-H292", "result": "0.066 ± 0.029", "unit": "µM"}, {"measurement": "EC50", "setting": "U266; Homo sapiens, U-266, 48 h", "result": "0.0047 ± 0.0007", "unit": "µM"}]}
{"smiles": "CC[C@H]1C(=O)N[C@@]2([C@@H](O)[C@@H]3C=CCCC3)C(=O)O[C@@]12C", "note": "[Formula II-17]", "values": [{"measurement": "EC50", "setting": "PC-3; Homo sapiens, PC-3, 48 h", "result": "> 20", "unit": "µM"}, {"measurement": "EC50", "setting": "HL-60; Homo sapiens, HL-60, 48 h", "result": "> 20", "unit": "µM"}, {"measurement": "EC50", "setting": "HL-60/MX2; Homo sapiens, HL60/MX2, 48 h", "result": "> 20", "unit": "µM"}, {"measurement": "EC50", "setting": "MES-SA; 48 h drug exposure", "result": 9.23, "unit": "µM"}, {"measurement": "EC50", "setting": "MES-SA/Dx5; MES-SA/Dx5, 48 h drug exposure", "result": 9.45, "unit": "µM"}, {"measurement": "EC50", "setting": "HT-29; Homo sapiens, read-out: EC50", "result": "> 20", "unit": "µM"}, {"measurement": "inhibition at 0.01 µM", "setting": "[1]", "result": 16, "unit": "%"}, {"measurement": "inhibition at 0.1 µM", "setting": "[1]", "result": 26, "unit": "%"}, {"measurement": "inhibition at 1 µM", "setting": "[1]", "result": 49, "unit": "%"}, {"measurement": "inhibition at 10 µM", "setting": "[1]", "result": 79, "unit": "%"}, {"measurement": "EC50", "setting": "NCI-H292; Homo sapiens, read-out: EC50", "result": "> 20", "unit": "µM"}]}
{"smiles": "C[C@H]1C(=O)N[C@@]2([C@@H](O)[C@@H]3C=CCCC3)C(=O)O[C@@]12C", "note": "[Formula II-20]", "values": [{"measurement": "inhibition at 0.01 µM", "setting": "[1]", "result": 38, "unit": "%"}, {"measurement": "inhibition at 0.1 µM", "setting": "[1]", "result": 57, "unit": "%"}, {"measurement": "inhibition at 1 µM", "setting": "[1]", "result": 71, "unit": "%"}, {"measurement": "inhibition at 10 µM", "setting": "[1]", "result": 90, "unit": "%"}, {"measurement": "EC50", "setting": "U266; Homo sapiens, U-266, 48 h", "result": 0.31, "unit": "µM"}, {"measurement": "EC50", "setting": "U266", "result": 0.442, "unit": "µM"}]}
